In PubChem BioAssay (NCI):
Several values for one entry are separate records, joined by “and”; a condition that tells them apart may be missing. Equal entries are not always repeated.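 Results reflect a 48-hour exposure of cells in 96-well plates to compound at five concentrations. The concentration for 50% growth inhibition is given as GI50. TGI: total growth inhibition.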

Tests used:
Experiment in all cases: inhibition of tumour cell growth, NCI panel, 48 h
A498 renal = test system: A498 renal
A549 NSCLC = test system: A549 NSCLC
IGROV1 ovarian = test system: IGROV1 ovarian
MDA-MB-231 breast = test system: MDA-MB-231 breast
SF-268 CNS = test system: SF-268 CNS
SF-295 CNS = test system: SF-295 CNS
SN12C renal = test system: SN12C renal
SNB-75 CNS = test system: SNB-75 CNS
DMS 273 small cell lung = test system: DMS 273 small cell lung
SNB-78 CNS = test system: SNB-78 CNS

Compound | GI50 (A498 renal) | TGI (A498 renal) | GI50 (A549 NSCLC) [µM] | TGI (A549 NSCLC) | GI50 (IGROV1 ovarian) | TGI (IGROV1 ovarian) | GI50 (MDA-MB-231 breast) | TGI (MDA-MB-231 breast) | GI50 (SF-268 CNS) | TGI (SF-268 CNS) | GI50 (SF-295 CNS) | TGI (SF-295 CNS) | GI50 (SN12C renal) | TGI (SN12C renal) | GI50 (SNB-75 CNS) | TGI (SNB-75 CNS) | TGI (DMS 273 small cell lung) [µM] | TGI (SNB-78 CNS) [µM]
O=C(Nc1ccc(Br)cc1)c1ccc(Cl)c(Cl)c1 | 0.207 µM | 3.75 µM | 3.76 | > 100 µM | 2.85 µM | > 100 µM | 3.24 µM | > 100 µM | 4.51 µM | > 100 µM | 2.03 µM | 4.94 µM | 3.21 µM | > 100 µM | 3.2 µM | > 31 µM | – | –
C=C1C(=O)O[C@H]2[C@H]1CC/C(COC(=O)c1ccc(Cl)nc1)=C\CC[C@@]1(C)O[C@@H]21 | 17.8 µM | 32.7 µM | 11.3 | 26.2 µM | 1.43 µM | 6.2 µM | 2.4 µM | 5.7 µM | 2.62 µM | 9.49 µM | 10.9 µM | 22.9 µM | 2.15 µM | 5.42 µM | 12.4 µM | 31.6 µM | – | –
Oc1cn(-c2ccc(Cl)cc2)nc1-c1n[nH]c(=S)n1C1CCCCC1 | 0.365 µM | 9.44 µM | 2.03 | > 48.8 µM | 24.2 µM | > 100 µM | 2.22 µM | > 90.7 µM | 13.7 µM | > 100 µM | < 0.0447 µM | 0.479 µM | 2.43 µM | > 100 µM | 0.165 µM | 0.702 µM | – | –
Nc1ccn(C2(CO)C=C(CO)C(O)C2O)c(=O)n1 (stereo unspecified) | – | > 25.8 µM | – | > 25.8 µM | – | > 25.8 µM | – | – | – | > 25.8 µM | – | – | – | > 25.8 µM | – | > 25.8 µM | > 25.8 | > 25.8
O=[N+]([O-])c1ccc2c(c1)C(c1ccccc1Cl)=Nc1cn[nH]c1N2 | 8.27 µM | > 23.3 µM | 19.7 | > 25 µM | > 23.5 µM | > 25 µM | 14.6 µM | > 25 µM | > 23.9 µM | > 25 µM | 8.48 µM | > 23.8 µM | 19.8 µM | > 25 µM | 0.618 µM | > 21.2 µM | – | –
COc1cccc(/C(COc2ccc3c(c2)oc(=O)c2cc(OC)ccc23)=N/O)c1 | 3.02 µM | 25.8 µM | 7.57 | > 100 µM | 3.8 µM | > 100 µM | 4.37 µM | 71 µM | 9.58 µM | > 100 µM | 8.22 µM | > 100 µM | 14.2 µM | > 100 µM | 2.36 µM | 9.61 µM | – | –
COC(=O)/C(C=O)=C/Sc1ccccc1 | – | – | – | > 100 µM | – | 28.8 µM | – | – | – | 33 µM | – | > 100 µM | – | 42.9 µM | – | 50.9 µM | 53.2 | > 100
C[n+]1cc(C(O)c2ccc3c(c2)OCO3)c2ccccc2c1 (stereo unspecified) | – | > 100 µM | – | > 100 µM | – | > 100 µM | – | – | – | > 100 µM | – | > 100 µM | – | > 100 µM | – | > 100 µM | > 100 | > 100
COc1cc2c(c(OC)n1)[C@]1(O)[C@H](O)[C@H](CN(C)C)[C@@H](c3ccccc3)[C@]1(c1ccc(C#N)cc1)O2 | 0.0192 µM and 0.0201 µM | 0.0518 µM and 0.0773 µM | < 0.01 | 8.42 µM and 8.64 µM | 0.0134 µM and < 0.01 µM | 2.44 µM and 1.93 µM | 0.0336 µM and 0.0242 µM | 1.72 µM and 1.48 µM | 0.0249 µM and 0.0148 µM | 2.02 µM and 1.85 µM | 0.0212 µM and 0.0231 µM | 0.811 µM and 1.84 µM | 0.0156 µM and < 0.0132 µM | 1.94 µM and 1.61 µM | 0.1 µM and 0.047 µM | 4.58 µM and 2.02 µM | – | –
CN[C@@H](C)[C@H](NC)c1ccccc1 | – | – | – | > 100 µM | – | > 100 µM | – | – | – | – | – | > 100 µM | – | > 100 µM | – | > 100 µM | > 100 | > 100
COc1ccc2c(c1)C(C)Cc1c(ncnc1-n1c(C)nc3ccccc31)N2C (stereo unspecified) | 2.15 µM | 9.03 µM | 4.82 | 24.7 µM | 6.3 µM | 36.2 µM | 4.56 µM | 28.2 µM | 11.5 µM | 39.7 µM | 1.79 µM | 7.85 µM | 13 µM | 77.6 µM | 2.41 µM | 11.1 µM | – | –
Cn1cc(C2=C(c3cn(CCCCCN)c4ccccc34)C(=O)NC2=O)c2ccccc21 | 11.3 µM | > 25 µM | 10.1 | > 25 µM | 14.7 µM | > 25 µM | 17.1 µM | > 25 µM | 12.5 µM | > 25 µM | 9.37 µM | > 20.1 µM | 9.33 µM | > 25 µM | 1.08 µM | > 25 µM | – | –
COc1cccc(-n2c3nc(=O)n(C)c(=O)c-3nc3ccccc32)c1 | – | > 100 µM | – | 52.2 µM | – | 59.6 µM | – | – | – | 53.9 µM | – | 29.2 µM | – | 30.8 µM | – | 76.2 µM | 30.9 | > 100
CC(=O)c1sc(-c2nc(C)c(C(=O)/C=C\c3ccc(/C=C\C(=O)c4sc(-c5nc(C)c(C(C)=O)s5)nc4C)cc3)s2)nc1C | – | – | – | > 100 µM | – | > 100 µM | – | – | – | > 100 µM | – | > 100 µM | – | > 100 µM | – | – | > 100 | > 100
C[C@]12CC[C@H](O)C[C@H]1CC[C@@H]1[C@@H]2CC[C@]2(C)[C@@H](C3=CC(=O)OC3)CC[C@]12O | 0.0591 µM | 0.378 µM | – | 0.0456 µM | – | 2.82 µM | – | > 62.2 µM | – | 0.226 µM | 0.0292 µM | 0.0959 µM | – | 0.327 µM | – | 2.12 µM | – | –
CC(C)(C=O)CC(C#N)/C(=N\NC(N)=O)C(=O)Nc1ccccc1C(N)=O (stereo unspecified) | – | > 100 µM | – | > 100 µM | – | > 100 µM | – | – | – | > 100 µM | – | > 100 µM | – | > 100 µM | – | – | – | > 100
C=C1C[C@]23CCC4C(C)(C)C(=O)CC[C@]4(C)C2C[C@H]1C(O)C3=O (stereo partly specified) | – | > 75 µM | – | > 75 µM | – | > 75 µM | – | – | – | > 75 µM | – | > 75 µM | – | > 75 µM | – | > 75 µM | – | > 75
